{"source": "patent US11773081B2", "about": "“Pharmaceutical composition for preventing or treating wound, comprising indirubin derivative as active ingredient” (CK Regeon Inc., priority 2018, dated 2023)", "key": {"[1]": {"tested_on": "mouse acute wound", "test": "Wound healing and collagen synthesis in mouse acute wound (Test Example 2)", "format": "in vivo", "experimental": "The wound healing-promoting effect of the indirubin derivatives prepared in Examples 1 and 2, the indirubin derivative of Comparative Example 1 (10) and EGF, known as an existing wound healing agent, as a positive control group was investigated through animal experiments.\nThe hair on the back of 7-week-old C3H mouse that entered the resting period was removed and a 1.5×1.5 cm^2 wound was made on the hair-removed region. 20 μL of a vehicle (10% DMSO, 45% ethanol, 18% propylene glycol, 27% water) and the indirubin derivative of Comparative Example 1 (10) were applied to a control group and a comparison group, respectively, once daily for 12 days. For the positive control group, 100 μM EGF was applied once daily for 12 days. For a first test group, 20 μL of the indirubin derivative of Example 2 (A3051) was applied once daily for 12 days. For a second test group, 20 μL of the indirubin derivative of Example 1 (A3334) was applied once daily for 12 days.\nThe tissue of each experimental mouse was fixed by immersing in 4% paraformaldehyde, embedded in paraffin and then sliced into 4 μm thickness. The sliced tissue was deparaffinized, rehydrated and then stained with Masson's trichrome and Picrosirius red for evaluation of the degree of collagen synthesis. For Masson's trichrome staining, a slide was placed in Weigert's iron hematoxylin solution for 10 minutes and in Biebrich scarlet-acid fuchsin and aniline blue for 5 minutes each. For Picrosirius red staining, a slide was placed in Weigert's solution for 8 minutes and in Picrosirius red for 1 hour."}, "[2]": {"tested_on": "diabetic wound", "test": "Effect of treating diabetic wound (Test Example 9)", "format": "in vivo", "conditions": "diabetes-induced mouse", "experimental": "(§1) 3-week-old male C57BL/6N mice (Koatech, South Korea) were used. After accustoming the mice for a week to normal feed, high-fat diet (Product Data—D12492; 60% kcal, hereinafter referred to as HFD) was given for 4 weeks. Then, a diabetes-induced animal model was prepared by intraperitoneally injecting 40 mg/kg streptozocin (Sigma) once daily for a week. The mice were kept in cages maintained at constant temperature (22±2° C.) and relative humidity (40-60%) with light/dark cycles of 12/12 hours.\n6 mice of the normal control group and 6 mice per test group of the diabetes-induced animal model of Test Example 7 were prepared. The hair on the back was removed and a 0.8×0.8 cm^2 wound was made on the hair-removed region.\nFor the normal control group, only 20 μL of an emulsion solution (Kollipore®EL:Tween 80:PEG 400 at a mixing weight ratio of 80:6:14) was applied to the wound site once daily for 14 days. For the negative control group, only 20 μL of the emulsion solution (Kollipore®EL:Tween 80:PEG 400 at a mixing weight ratio of 80:6:14) was applied to the wound site once daily for 14 days. For the positive control group (VPA), 20 μL of a composition prepared by mixing 500 mM VPA in an emulsion solution was applied to the wound site once daily for 14 days.\nFor the first test group, 20 μL of A3334 (Example 1) was applied to the wound site once daily for 14 days. For the second test group, 20 μL of A3051 (Example 2) was applied to the wound site once daily for 14 days. Then, the wound site of each group was photographed and the wound area was measured (FIG. 14). On day 14, after euthanizing the mouse with carbon dioxide, the wound site tissue was harvested and the histological structure was observed.\nSpecifically, the wound site tissue obtained from the normal control group, the negative control group, the positive control group or the first or second test group was fixed by immersing in 4% paraformaldehyde, embedded in paraffin and then sliced into 4 μm thickness. The sliced tissue was deparaffinized, rehydrated and then stained with hematoxylin (purple) and eosin (pink) for observation of histological structure.\nSpecifically, the wound site tissue obtained from the normal control group, the negative control group, the positive control group or the first or second test group was fixed by immersing in 4% paraformaldehyde, embedded in paraffin and then sliced into 4 μm thickness. The sliced tissue was deparaffinized, rehydrated and then stained with Van Gieson's stain and Masson's trichrome for observation of histological structure. For the Van Gieson's staining, the sliced tissue was immersed in Weigert's solution for 10 minutes and in picrofuchsin solution for 2 minutes. For the Masson's trichrome staining, the sliced tissue was immersed in Weigert's iron hematoxylin solution for 10 minutes and in Biebrich scarlet-acid fuchsin and Aniline blue for 5 minutes each.\nSpecifically, the wound site tissue obtained from the normal control group, the negative control group, the positive control group or the first and second test groups was fixed by immersing in 4% paraformaldehyde and angiogenesis was observed."}, "[3]": {"tested_on": "diabetic wound", "test": "Wound healing effect in diabetic wound animal model (Test Example 8)", "format": "in vivo, mouse", "experimental": "as §1\n6 mice of the normal control group and 6 mice per test group of the diabetes-induced animal model of Test Example 7 were prepared. The hair on the back was removed and a 1.5×1.5 cm^2 wound was made on the hair-removed region.\nFor the normal control group, only 20 μL of an emulsion solution (Kollipore®EL:Tween 80:PEG 400 at a mixing weight ratio of 80:6:14) was applied to the wound site once daily for 14 days. For the negative control group, only 20 μL of the emulsion solution (Kollipore®EL:Tween 80:PEG 400 at a mixing weight ratio of 80:6:14) was applied to the wound site once daily for 14 days. For the test group, 20 μL of A3334 (Example 1) was applied to the wound site once daily for 14 days. Then, the wound site of the animal model was photographed and the wound area was measured on days 0, 1, 3, 7, 10 and 14 (FIG. 10). On day 14, after euthanizing the mouse with carbon dioxide, the wound site tissue was harvested and the histological structure was observed.\nA3334 (Example 1) was prepared by preparing an emulsion solution by mixing Kollipore®EL:Tween 80:PEG 400 at a mixing weight ratio of 80:6:14 and then dissolving the A3334 indirubin derivative synthesized in Example 1 to a concentration of 0.5 mM.\nThe wound closure rate (%) was calculated according to Equation 1. Wound closure rate (%)=[initial wound area on day 0−wound area on measurement day]/[initial wound area on day 0]×100 [Equation 1] […]"}, "[4]": {"conditions": "C3H mouse acute wound, once daily for 12 days, vs EGF"}}, "note": "“Also recorded” adds a separate entry of the source.", "data": [{"smiles": "COc1ccc2c(c1)/C(=C1/Nc3ccccc3/C1=N\\O)C(=O)N2", "note": "[Example 1, 5-methoxylindirubin-3′-oxime]", "values": [{"measurement": "quantity of collagen (Masson's trichrome, Picrosirius red, van Gieson's stain)", "setting": "[1]; C3H mouse acute wound tissue, vs control group, Comparative Example 1, positive control group", "value": "remarkably increases the quantity of collagen"}, {"measurement": "re-epithelialization of acute wound", "setting": "[1]; [4]", "value": "re-epithelialized comparably to or faster than the positive control group EGF"}, {"measurement": "scar-reducing effect, repair of the epidermal layer of skin", "setting": "[1]; [4]", "value": "repairing the epidermal layer of skin without remaining scars"}, {"measurement": "wound repair effect as compared to the positive control group EGF", "setting": "[1]; C3H mouse, 1.5×1.5 cm^2 wound, 20 μL once daily for 12 days, EGF 100 μM, listed as A3334", "value": "slightly superior wound repair effect; also recorded: slightly better wound repair effect"}, {"measurement": "angiogenesis around the wound site", "setting": "[2]", "value": "increased angiogenesis"}, {"measurement": "healing of the wound site", "setting": "[2]; 0.8×0.8 cm^2 wound, 20 μL once daily for 14 days, VPA 500 mM", "value": "healing of the wound site was promoted similarly to the normal control group"}, {"measurement": "re-epithelialization (H&E)", "setting": "[2]; 14 days", "value": "re-epithelialization occurred quickly"}, {"measurement": "collagen synthesis (Van Gieson's stain, Masson's trichrome)", "setting": "[2]; vs normal, negative and positive control group (VPA)", "value": "increased collagen synthesis"}, {"measurement": "healing of the wound site (wound closure rate)", "setting": "[3]; diabetes-induced C57BL/6N mouse, 1.5×1.5 cm^2 wound, 20 μL of 0.5 mM once daily for 14 days", "value": "healing of the wound site was promoted similarly to the normal control group"}, {"measurement": "re-epithelialization (H&E)", "setting": "[3]; diabetes-induced mouse, 14 days", "value": "fast re-epithelialization"}, {"measurement": "collagen synthesis (Van Gieson's stain, Picrosirius red)", "setting": "[3]; diabetes-induced mouse, vs normal and negative control group", "value": "increased collagen synthesis"}]}]}
